Measurements from ChEMBL document CHEMBL1221406, “Germacrane-type sesquiterpenoids from the roots of Valeriana officinalis var. latifolia” (J Nat Prod, 2010).
Calls of active or inactive are those of the source. No cut-off for these calls is given here.

target: Acetylcholinesterase (Homo sapiens) (UniProt P22303); assay: Inhibition of AchE at 100 uM after 30 mins by Ellman's method
Sequence (P22303 whole entry): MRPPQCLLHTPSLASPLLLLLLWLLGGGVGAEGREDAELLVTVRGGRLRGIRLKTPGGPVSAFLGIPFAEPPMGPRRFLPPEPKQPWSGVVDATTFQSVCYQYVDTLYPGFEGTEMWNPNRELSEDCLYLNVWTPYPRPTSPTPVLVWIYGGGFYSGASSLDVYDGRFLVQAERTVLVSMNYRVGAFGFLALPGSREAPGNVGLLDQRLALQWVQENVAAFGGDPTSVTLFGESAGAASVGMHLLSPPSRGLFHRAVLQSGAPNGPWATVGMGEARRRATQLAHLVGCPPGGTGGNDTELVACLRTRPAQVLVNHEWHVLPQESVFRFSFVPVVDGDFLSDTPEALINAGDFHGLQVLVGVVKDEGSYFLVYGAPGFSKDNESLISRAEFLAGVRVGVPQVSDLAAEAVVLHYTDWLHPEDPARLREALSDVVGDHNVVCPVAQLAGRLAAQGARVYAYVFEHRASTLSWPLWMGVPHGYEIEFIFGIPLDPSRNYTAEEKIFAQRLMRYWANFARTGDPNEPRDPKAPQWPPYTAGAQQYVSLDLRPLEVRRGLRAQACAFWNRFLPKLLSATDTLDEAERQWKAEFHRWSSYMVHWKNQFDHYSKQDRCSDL

| Structure (SMILES) | inhibition |
| --- | --- |
| C/C1=C\CC/C(C=O)=C\[C@H]2[C@@H](C[C@H]1O)C2(C)C | inactive |
| CC(=O)O[C@H]1C/C(C)=C/CC/C(C(=O)O)=C/[C@@H]2[C@H]1C2(C)C | inactive |
| C/C1=C\CC/C(C(=O)O)=C/[C@@H]2[C@H](CC1)C2(C)C | inactive |
| CC1(C)[C@@H]2CC[C@@]3(C=O)O[C@@H]3CC/C(C=O)=C\[C@@H]21 | inactive |
| CC(=O)OC/C1=C\CC/C(C=O)=C\[C@@H]2[C@@H](CC1)C2(C)C | inactive |
| CC1(C)[C@@H]2CC[C@@]3(C)O[C@@H]3CC/C(C=O)=C\[C@@H]21 | 25.9% |
| CC(=O)O[C@H]1C[C@@]2(C)O[C@@H]2CC/C(C=O)=C\[C@H]2[C@@H]1C2(C)C | inactive |
| CC(=O)OC[C@@]12CC[C@@H]3[C@H](/C=C(/C=O)CC[C@H]1O2)C3(C)C | inactive |
| C=C1CC[C@H]2[C@@H](/C=C(\C(=O)O)CC[C@@H]1O)C2(C)C | inactive |
